From ChEMBL document CHEMBL1148880, “Development of piperazine-tethered heterodimers as potent antimalarials against chloroquine-resistant P. falciparum strains. Synthesis and molecular modeling” (Bioorg Med Chem Lett, 2007)

How the values were obtained:
Assay type in all cases: functional, organism-based
[1] = system: Plasmodium falciparum; experiment: Antiplasmodial activity against chloroquine-resistant Plasmodium falciparum K1
[2] = system: Plasmodium falciparum; experiment: Antiplasmodial activity against chloroquine-resistant Plasmodium falciparum W2
[3] = system: Plasmodium falciparum; experiment: Antiplasmodial activity against chloroquine-sensitive Plasmodium falciparum 3D7
[4] = system: Plasmodium falciparum; experiment: Antiplasmodial activity against chloroquine-sensitive Plasmodium falciparum D10

Compound | IC50 [1] [µM] | IC50 [2] [µM] | IC50 [3] [µM] | IC50 [4] [µM]
CCN(CC)CCCC(C)NC1CC=Nc2cc(Cl)ccc21 (stereo not drawn) | 260 | 280 | 10 | 22
Clc1ccc2/c(=N/CCCN3CCN(CCCNc4nc5ccccc5[nH]4)CC3)cc[nH]c2c1 | – | 535 | – | 407
CS(=O)(=O)OC(c1ccc(CNCCCN2CCN(CCC/N=c3\cc[nH]c4cc(Cl)ccc34)CC2)cc1)c1cccc(Cl)c1 (stereo not drawn) | 447 | 98 | 7.8 | 110
OC(c1ccc(CNCCCN2CCN(CCC/N=c3\cc[nH]c4cc(Cl)ccc34)CC2)cc1)c1cccc(Cl)c1 (stereo not drawn) | 135 | 269 | 28 | 145
O=C(NCCCN1CCN(CCC/N=c2\cc[nH]c3cc(Cl)ccc23)CC1)C(c1cccc(Cl)c1)n1ccnc1 (stereo not drawn) | 200 | 540 | 40 | 221
O=C(c1ccc(CNCCCN2CCN(CCC/N=c3\cc[nH]c4cc(Cl)ccc34)CC2)cc1)c1cccc(Cl)c1 | 16 | 33 | 1.6 | 26
Clc1ccc2/c(=N/CCCN3CCN(CCCNCC4N=CC=N4)CC3)cc[nH]c2c1 | – | 1440 | – | 1610
Clc1ccc2/c(=N/CCCN3CCN(CCCNCc4ccc(CN5CCCC5)cc4)CC3)cc[nH]c2c1 | – | 207 | – | 260
Clc1cccc(C(NCCCN2CCN(CCC/N=c3\cc[nH]c4cc(Cl)ccc34)CC2)c2ccc(CN3CCCC3)cc2)c1 (stereo not drawn) | – | 495 | – | 663
